System: SH-SY5Y
Test: Neuroprotective activity against 6-OHDA induced cell death in human SH-SY5Y cells preincubated with 6-hyrdoxydopamine followed by compound addition and measured after 24 hrs by MTT assay
Format: functional, cell-based

Compared with `CCCCCc1cccc(=O)o1`, `CC[C@H]1CCc2oc(=O)ccc2[C@H]1O` is 4.4-fold lower in EC50: 1280 nM for the first, 290 nM for the second.

`COc1cc(/C=C/C(=O)CC(=O)/C=C/c2ccc(O)c(OC)c2)ccc1O` [CURCUMIN] was tested, and the EC50 was 5290 nM.
